In US11083707B2, “Substituted indoline derivatives as dengue viral replication inhibitors” (JANSSEN PHARMACEUTICALS, INC., priority 2017, dated 2021):

Experiments:
[1] = tested on: DENV-2 16681 strain; test: DENV-2 antiviral assay (eGFP fluorescence, Vero cells); type: cell-based, Dengue virus; settings: Dengue virus, DENV2, Vero, 72 h, DENV-2 16681 eGFP, MOI 0.5, 3 days
[2] = in vitro; settings: African green monkey

COc1cc(NC(C(=O)N2CCc3c(C)cc(OC(F)(F)F)cc32)c2ccc(Cl)cc2OCCCC(=O)O)cc(-n2cncn2)c1 (racemic) [Compound 16, 4-(5-chloro-2-(1-((3-methoxy-5-(1H-1,2,4-triazol-1-yl)phenyl)amino)-2-(4-methyl-6-(trifluoromethoxy)indolin-1-yl)-2-oxoethyl)phenoxy)butanoic acid]
EC50 [1]: 0.00011 µM | melting point: 214 °C | CC50 [2]: 11 µM
